Patent US9695155B2, “Herbicidal substituted pyrimidinyloxy benzene compounds” (E. I. DU PONT DE NEMOURS AND COMPANY, priority 2013, dated 2017)

Legend:
waterhemp = experiment: Test E preemergence; assay type: in vivo, Amaranthus rudis; details: for Waterhemp plant response rating: scale 0 to 100 (0 no effect, 100 complete control)
Excerpt: (§1) Seeds of plant species selected from corn (Zea mays), soybean (Glycine max), velvetleaf (Abutilon theophrasti), lambsquarters (Chenopodium album), wild poinsettia (Euphorbia heterophylla), palmer pigweed (Amaranthus palmeri), waterhemp (common waterhemp, Amaranthus rudis), surinam grass (Brachiaria decumbens), large (Lg) crabgrass (Digitaria sanguinalis), Brazilian crabgrass (Digitaria horizontalis), fall panicum (Panicum dichotomiflorum), giant foxtail (Setaria faberii), green foxtail (Setaria viridis), goosegrass (Eleusine indica), johnsongrass (Sorghum halepense), ragweed (common ragweed, Ambrosia elatior), barnyardgrass (Echinochloa crus-galli), sandbur (southern sandbur, Cenchrus echinatus), arrowleaf sida (Sida rhombifolia), Italian ryegrass (Lolium multiflorum), dayflower (Virginia (VA) dayflower, Commelina virginica), field bindweed (Convolvulus arvensis), morningglory (Ipomoea coccinea), nightshade (eastern black nightshade, Solanum ptycanthum), kochia (Kochia scoparia), yellow nutsedge (Cyperus esculentus), cocklebur (common cocklebur, Xanthium strumarium), smartweed (ladysthumb smartweed, and hairy beggarticks (Bidens pilosa), were planted into a silt loam soil and treated preemergence with test chemicals formulated in a non-phytotoxic solvent mixture which included a surfactant.
(§2) At the same time, plants from these crop and weed species and also horseweed (Canada horseweed, Conyza canadensis), waterhemp_RES1, (ALS & Triazine resistant common waterhemp, Amaranthus rudis), and waterhemp_RES2, (ALS & HPPD resistant common waterhemp, Amaranthus rudis) were planted in pots containing Redi-Earth® planting medium (Scotts Company, 14111 Scottslawn Road, Marysville, Ohio 43041) comprising spaghnum peat moss, vermiculite, wetting agent and starter nutrients were treated with postemergence applications of test chemicals formulated in the same manner. Plants ranged in height from 2 to 18 cm for postemergence treatments (1- to 4-leaf stage). Treated plants and controls were maintained in a greenhouse for 14 to 21 days, after which time all species were compared to controls and visually evaluated. Plant response ratings, summarized in Table E, are based on a scale of 0 to 100 where 0 is no effect and 100 is complete control. A dash (-) response means no test result.

Brazilian crabgrass = experiment: Test E preemergence; assay type: in vivo, Digitaria horizontalis; details: for Crabgrass, Brazil plant response rating: scale 0 to 100 (0 no effect, 100 complete control)
Excerpt: as §1, §2

dayflower = experiment: Test E preemergence; assay type: in vivo, Commelina virginica; details: for Dayflower, VA plant response rating: scale 0 to 100 (0 no effect, 100 complete control)
Excerpt: as §1, §2

field bindweed = experiment: Test E preemergence; assay type: in vivo, Convolvulus arvensis; details: for Field Bindweed plant response rating: scale 0 to 100 (0 no effect, 100 complete control)
Excerpt: as §1, §2

barnyardgrass = experiment: Test E preemergence; assay type: in vivo, Echinochloa crus-galli; details: preemergence; for Barnyardgrass plant response rating: scale 0 to 100 (0 no effect, 100 complete control)
Excerpt: as §1, §2

soybean = experiment: Test E preemergence; assay type: in vivo, Glycine max; details: for Soybean plant response rating: scale 0 to 100 (0 no effect, 100 complete control)
Excerpt: as §1, §2

velvetleaf = experiment: Test E preemergence; assay type: in vivo, Abutilon theophrasti; details: for Velvetleaf plant response rating: scale 0 to 100 (0 no effect, 100 complete control)
Excerpt: as §1, §2

Italian ryegrass = experiment: Test E preemergence; assay type: in vivo, Lolium multiflorum; details: for Ryegrass, Italian plant response rating: scale 0 to 100 (0 no effect, 100 complete control)
Excerpt: as §1, §2

corn = experiment: Test C preemergence; assay type: in vivo, Zea mays; details: for Corn plant response rating: preemergence; for Plant response rating, Corn: Preemergence, scale 0 to 100, 0 no effect, 100 complete control
Method in brief: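 Whole-plant greenhouse test with surfactant-containing solvent formulation, applied preemergence to sown loam–sand pots or postemergence to 2–18 cm plants. Scored by eye 13 to 15 days on, 0–100 scale.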

[1] = 125 g ai/ha, scale 0 to 100, 0 no effect, 100 complete control
[2] = 250 g ai/ha, scale 0 to 100, 0 no effect, 100 complete control
[3] = 16 g ai/ha, scale 0 to 100 (0 no effect, 100 complete control)
[4] = 125 g ai/ha, scale 0 (no effect) to 100 (complete control)
[5] = 8 g ai/ha, scale 0 to 100, 0 is no effect, 100 is complete control
[6] = 62 g ai/ha, scale 0 (no effect) to 100 (complete control)

SMILES	Waterhemp plant response rating (waterhemp; 31 g ai/ha)	Waterhemp plant response rating (waterhemp; 62 g ai/ha)	Plant response rating, Waterhemp (waterhemp; [1])	Crabgrass, Brazil plant response rating (Brazilian crabgrass; 31 g ai/ha)	Crabgrass, Brazil plant response rating (Brazilian crabgrass; 62 g ai/ha)	Plant response rating, Crabgrass, Brazil (Brazilian crabgrass; [1])	Dayflower, VA plant response rating (dayflower; 31 g ai/ha)	Dayflower, VA plant response rating (dayflower; 62 g ai/ha)	Plant response rating, Dayflower, VA (dayflower; [1])	Field Bindweed plant response rating (field bindweed; 31 g ai/ha)	Field Bindweed plant response rating (field bindweed; 62 g ai/ha)	Plant response rating, Field Bindweed (field bindweed; [1])	Barnyardgrass plant response rating (barnyardgrass; 31 g ai/ha)	Barnyardgrass plant response rating (barnyardgrass; 62 g ai/ha)	Plant response rating, Barnyardgrass (barnyardgrass; [1])	Soybean plant response rating (soybean; 31 g ai/ha)	Soybean plant response rating (soybean; 62 g ai/ha)	Plant response rating, Soybean (soybean; [1])	Velvetleaf plant response rating (velvetleaf; 31 g ai/ha)	Velvetleaf plant response rating (velvetleaf; 62 g ai/ha)	further results
Cc1cnc(Oc2cccc(C#N)c2-n2cc(C(F)(F)F)cn2)nc1 [Compound 180]	98	98	100	90	100	100	0	35	85	10	25	65	20	98	100	35	70	90	35	80	Plant response rating, Waterhemp (waterhemp; [2]): 100; Plant response rating, Crabgrass, Brazil (Brazilian crabgrass; [2]): 100; Plant response rating, Dayflower, VA (dayflower; [2]): 90; Plant response rating, Field Bindweed (field bindweed; [2]): 90; Plant response rating, Barnyardgrass (barnyardgrass; [2]): 100; Plant response rating, Soybean (soybean; [2]): 98; Plant response rating, Velvetleaf (velvetleaf; [1]): 100; Plant response rating, Velvetleaf (velvetleaf; [2]): 100; Ryegrass, Italian plant response rating (Italian ryegrass; 31 g ai/ha): 0; Ryegrass, Italian plant response rating (Italian ryegrass; 62 g ai/ha): 0; Plant response rating, Ryegrass, Italian (Italian ryegrass; [1]): 30; Plant response rating, Ryegrass, Italian (Italian ryegrass; [2]): 70; Corn plant response rating (corn; [3]): 5; Corn plant response rating (corn; [4]): 65; Plant response rating, Corn (corn; 62 g ai/ha): 30
FC(F)c1cccc(Oc2ncc(Cl)cn2)c1-n1cc(C(F)(F)F)cn1 [Compound 170]	80	90	80	100	100	100	30	80	95	0	20	30	0	35	75	0	30	60	60	65	Plant response rating, Waterhemp (waterhemp; [5]): 0; Plant response rating, Crabgrass, Brazil (Brazilian crabgrass; [5]): 30; Crabgrass, Brazil plant response rating (Brazilian crabgrass; 16 g ai/ha): 40; Plant response rating, Dayflower, VA (dayflower; [5]): 0; Dayflower, VA plant response rating (dayflower; 16 g ai/ha): 30; Plant response rating, Field Bindweed (field bindweed; [5]): 0; Field Bindweed plant response rating (field bindweed; 16 g ai/ha): 0; Plant response rating, Barnyardgrass (barnyardgrass; [5]): 0; Barnyardgrass plant response rating (barnyardgrass; 16 g ai/ha): 0; Plant response rating, Soybean (soybean; [5]): 0; Plant response rating, Velvetleaf (velvetleaf; [5]): 0; Plant response rating, Velvetleaf (velvetleaf; [1]): 100; Plant response rating, Ryegrass, Italian (Italian ryegrass; [5]): 0; Ryegrass, Italian plant response rating (Italian ryegrass; 31 g ai/ha): 20; Ryegrass, Italian plant response rating (Italian ryegrass; 62 g ai/ha): 35; Plant response rating, Ryegrass, Italian (Italian ryegrass; [1]): 70; Corn plant response rating (corn; [3]): 0; Corn plant response rating (corn; [6]): 15; Corn plant response rating (corn; [4]): 40; Plant response rating, Corn (corn; 31 g ai/ha): 5
Fc1cnc(Oc2cccc(C(F)F)c2-n2cc(C(F)(F)F)cn2)nc1 [Compound 164]	65	90	90	20	75	100	20	65	90	0	30	50	0	0	65	0	15	70	50	100	Crabgrass, Brazil plant response rating (Brazilian crabgrass; 16 g ai/ha): 0; Dayflower, VA plant response rating (dayflower; 16 g ai/ha): 0; Field Bindweed plant response rating (field bindweed; 16 g ai/ha): 0; Barnyardgrass plant response rating (barnyardgrass; 16 g ai/ha): 0; Plant response rating, Velvetleaf (velvetleaf; [1]): 100; Ryegrass, Italian plant response rating (Italian ryegrass; 31 g ai/ha): 0; Ryegrass, Italian plant response rating (Italian ryegrass; 62 g ai/ha): 30; Plant response rating, Ryegrass, Italian (Italian ryegrass; [1]): 60; Corn plant response rating (corn; [3]): 0; Corn plant response rating (corn; [6]): 5; Corn plant response rating (corn; [4]): 45; Plant response rating, Corn (corn; 31 g ai/ha): 5
